Experimental data as given in the NIST ThermoML archive (doi:10.1021/je100315g).

Columns and labels:
[1] = xn = mol fraction of the nth substance listed; details: 101 kPa, Liquid
[2] = 101 kPa, Liquid

C[S+](C)[O-] [dimethyl sulfoxide] + CCCC[n+]1ccn(C)c1.O=S(=O)([N-]S(=O)(=O)C(F)(F)F)C(F)(F)F
[1], x2 = 0
Details	mass density [kg/m3]
293.15 K	1100.31
298.15 K	1095.3
303.13 K	1090.31
308.15 K	1085.27
313.15 K	1080.27

C1CCOC1 [tetrahydrofuran]
[2]
Details	mass density [kg/m3]
293.15 K	887.41
298.15 K	881.98
303.13 K	876.47
308.15 K	870.96

C1CCOC1 [tetrahydrofuran] + CCCC[n+]1ccn(C)c1.O=S(=O)([N-]S(=O)(=O)C(F)(F)F)C(F)(F)F
[1], x2 = 0
Details	mass density [kg/m3]
293.15 K	887.41
298.15 K	881.98
303.13 K	876.47
308.15 K	870.96

CCn1cc[n+](C)c1.O=S(=O)([N-]S(=O)(=O)C(F)(F)F)C(F)(F)F + C[S+](C)[O-]
mass density [kg/m3], [1]
Details	x1 = 0.0593	x1 = 0.1959	x1 = 0.3595	x1 = 0.5086	x1 = 0.6325	x1 = 0.7778	x1 = 0.9378	x1 = 1
293.15 K	1173.7	1289.73	1375.56	1427.76	1459.88	1489.12	1513.61	1522.08
298.15 K	1168.67	1284.68	1370.44	1422.61	1454.75	1484.04	1508.51	1516.96
303.13 K	1163.66	1279.59	1365.31	1417.47	1449.64	1478.96	1503.42	1511.85
308.15 K	1158.66	1274.53	1360.26	1412.42	1444.59	1473.89	1498.38	1506.8
313.15 K	1153.63	1269.48	1355.2	1407.36	1439.52	1468.84	1493.29	1501.74

CC#N [acetonitrile]
[2]
Details	mass density [kg/m3]
293.15 K	781.89
298.15 K	776.52
303.13 K	771.12
308.15 K	765.68
313.15 K	760.2

CCCC[n+]1ccn(C)c1.O=S(=O)([N-]S(=O)(=O)C(F)(F)F)C(F)(F)F + C1CCOC1
mass density [kg/m3], [1]
Details	x1 = 0.0488	x1 = 0.1139	x1 = 0.1771	x1 = 0.2815	x1 = 0.4048	x1 = 0.4897	x1 = 0.6329	x1 = 0.7468	x1 = 0.9071	x1 = 1
293.15 K	978.17	1069.71	1136.61	1218.29	1286.31	1321.41	1367.37	1395.56	1426.74	1441.63
298.15 K	973.69	1065.22	1132.17	1213.74	1281.83	1317.1	1362.88	1391.06	1421.92	1436.83
303.13 K	970.01	1060.65	1128.01	1209.23	1277.24	1312.14	1358.73	1386.29	1417.19	1431.98
308.15 K	964.12	1055.92	1122.34	1204.63	1272.69	1307.42	1353.21	1381.45	1412.45	1427.16

CC#N [acetonitrile] + CCCC[n+]1ccn(C)c1.O=S(=O)([N-]S(=O)(=O)C(F)(F)F)C(F)(F)F
[1], x2 = 0
Details	mass density [kg/m3]
293.15 K	781.89
298.15 K	776.52
303.13 K	771.12
308.15 K	765.68
313.15 K	760.2

CCn1cc[n+](C)c1.O=S(=O)([N-]S(=O)(=O)C(F)(F)F)C(F)(F)F + C1CCOC1
mass density [kg/m3], [1]
Details	x1 = 0.1037	x1 = 0.2024	x1 = 0.3255	x1 = 0.3841	x1 = 0.4425	x1 = 0.5469	x1 = 0.6863	x1 = 0.7697	x1 = 0.9177	x1 = 1
293.15 K	1065.02	1178.77	1278.55	1315.59	1347.51	1395.4	1444.8	1469.16	1505.22	1522.08
298.15 K	1061.32	1173.6	1274.14	1310.96	1342.57	1390.69	1440.1	1464.51	1500.21	1516.96
303.13 K	1056.14	1168.46	1269.66	1306.48	1337.7	1385.78	1435.45	1459.45	1495.17	1511.85
308.15 K	1051.2	1163.55	1264.42	1301.8	1332.56	1381.31	1430.62	1454.67	1490.13	1506.8

C[S+](C)[O-] [dimethyl sulfoxide] + CCn1cc[n+](C)c1.O=S(=O)([N-]S(=O)(=O)C(F)(F)F)C(F)(F)F
[1], x2 = 0
Details	mass density [kg/m3]
293.15 K	1100.31
298.15 K	1095.3
303.13 K	1090.31
308.15 K	1085.27
313.15 K	1080.27

CCCC[n+]1ccn(C)c1.O=S(=O)([N-]S(=O)(=O)C(F)(F)F)C(F)(F)F
[2]
Details	mass density [kg/m3]
293.15 K	1441.63
298.15 K	1436.83
303.13 K	1431.98
308.15 K	1427.16
313.15 K	1422.36
